Assay [1] deals with A2780 cells. The assay can be described thus: Live cell confocal microscopy, cellular uptake and co-localization. The assay is classed as cell-based, human. On the procedure: A2780 cells (1×10^5 cells/mL, 300 μL) were plated in each well of an 8-well μ-slide (ibidi cell focus) and cultured overnight. PBS solution of ExBox^4+⊃DPP was added to each well and incubated for predetermined time points. For cellular co-localization studies, cells were washed with phenol free DMEM and stained with LysoTracker green (lysosome stain, 1:1000 dilution) or MitoSpy™ Green FM (mitochondria stain, 1:2000 dilution) or NucBlue™ Live ReadyProbes™ Reagent (nuclei stain, 1 drop). For the live-dead assay, cells were incubated with PBS solution of ExBox^4+⊃DPP irradiated for 10 min at […] light intensity, incubated overnight, and stained with Calcein AM (2 μM) and Ethidium homodimer-1 (4 μM). Plated cells were imaged within a humidified chamber using a 63× oil-immersion objective on a SP5 Leica Confocal Microscope using HyD detectors and lasers.

The subject of assay [2] is A2780 cells. The assay can be described thus: Cellular uptake studies by flow cytometry (MFI). It counts as cell-based, human. The following applies: 10 μM, 30 min to 12 h. On the procedure: A2780 cells (5×10^5 cells/mL, 200 μL) were seeded in each well of a 48-well plate and treated with 10 μM PBS solution of ExBox^4+⊃DPP for 30 min, 1 h, 2 h, 6 h, and 12 h. Cells were washed with PBS, trypsinized, and incubated with 50 μL of 1:100 Zombie Aqua fixable cell viability dye for 15 min at 4° C. After incubation, cells were washed with 600 μL PBS, spun at 400 ref for 5 min, and the supernatant was discarded. Cells were then suspended in 100 μL of 2% paraformaldehyde prior to being analyzed using a BD Fortessa flow cytometer. Cells were first gated for singlet events using FSC-A vs. FSC-H, after which debris was excluded used FSC-A vs. SSC-A. Cells gated as Zombie Aqua low were considered live cells, which were then analyzed for their median fluorescence intensity (MFI) in the PE-Cy5 channel for ExBox^4+⊃DPP fluorescence, representing the amount of ExBox^4+⊃DPP taken up by each cell.
On the technique in general: Flow cytometry measures light scatter and fluorescence of single cells or particles in a stream.

Regarding `C1=Cc2nc1cc1ccc([nH]1)c(-c1ccccc1)c1nc(cc3ccc([nH]3)c2-c2ccccc2)C=C1.c1cc2ccc1C[n+]1ccc(cc1)-c1ccc(cc1)-c1cc[n+](cc1)Cc1ccc(cc1)C[n+]1ccc(cc1)-c1ccc(cc1)-c1cc[n+](cc1)C2` [ExBox^4+⊃DPP], in assay [1] (5 min continuous irradiation, 25 mW), the “cell injury under continuous irradiation (real-time confocal)” value is “showed blebs on their surface”. In addition, the “lysosomal co-localization (lysotracker)” value is given as “no lysosomal co-localization” in assay [1] (1 h incubation) and “co-localization of DPP with the green fluorescence of lysotracker was detected” in assay [1] (incubation time up to 12 h). Besides, the “mitochondrial internalization (mitospy)” value in assay [1] (12 h incubation, 10 μM) was “no mitochondrial internalization”. In addition, the “lowest concentration traceable as punctate inside cells” value in assay [1] (red laser excitation, 12 h incubation) was determined as 0.1. Besides, the “uptake and DPP fluorescence signal (MFI)” value in assay [2] was “time-dependent increase”.

Source of the values: patent publication US12433870B2, “Supramolecular photoprotection of a photosensitizer” (Northwestern University, priority 2019, dated 2025).
